Measured values: patent US11801240B2, “Combination therapies and uses thereof” (Tesaro, Inc., priority 2017, dated 2023)

Legend:
[1] = test system: A2780 (BRCA wt, HRD−) ovarian cancer cell line-derived xenograft; experiment: Niraparib and cabozantinib combination in ovarian cancer cell line-derived xenograft model A2780; type: in vivo, mouse; conditions: A2780, Balb/C nude female mice, 2 weeks; niraparib 60 mg/kg po qd, cabozantinib 30 mg/kg po qd; end of treatment
ovarian PDX model OVC134 = experiment: Niraparib and cabozantinib combination in ovarian PDX model OVC134; type: in vivo, mouse
TNBC PDX model MAXF 857 = experiment: Niraparib+bevacizumab and niraparib+cabozantinib combinations in TNBC PDX model MAXF 857; type: in vivo, mouse; conditions: for Tumor growth inhibition (TGI): MAXF 857, NMRI nude female mice, 5 weeks, bevacizumab 20 mg/kg iv qw, cabozantinib 30 mg/kg po qd, end of treatment
[2] = test system: A2780 (BRCA wt, HRD−) ovarian cancer cell line-derived xenograft; experiment: Niraparib and bevacizumab combination in ovarian cancer cell line-derived xenograft model A2780; type: in vivo, mouse; conditions: A2780, CB-17 SCID female mice, 2 weeks; niraparib 60 mg/kg po qd, bevacizumab 10 mg/kg iv qw; end of treatment

Row | Molecule | Tumor growth inhibition (TGI) [1] [%] | Tumor growth inhibition (TGI) (ovarian PDX model OVC134; OVC134, Balb/C nude female mice, 7 weeks, cabozantinib 30 mg/kg po qd, end of treatment) [%] | Tumor growth inhibition (TGI) (TNBC PDX model MAXF 857) [%] | Tumor growth inhibition (TGI) [2] [%] | Sensitivity of the model to monotherapy (anti-tumor activity) (ovarian PDX model OVC134; ovarian PDX model OVC134, 7 weeks) | Tumor growth inhibition (TGI) (TNBC PDX model MAXF MX1; MAXF MX1, NMRI nude female mice, 5 weeks, niraparib 50 mg/kg po qd, end of treatment) [%] | Sensitivity of the model to monotherapy (anti-tumor activity) (TNBC PDX model MAXF MX1; TNBC PDX model MAXF MX1, 5 weeks) | Sensitivity of the model to monotherapy (anti-tumor activity) (TNBC PDX model MAXF 857; TNBC PDX model MAXF 857, 5 weeks)
1 | COc1cc2nccc(Oc3ccc(NC(=O)C4(C(=O)Nc5ccc(F)cc5)CC4)cc3)c2cc1OC [cabozantinib] | 51 | 83 | 65 | – | – | – | – | –
2 | NC(=O)c1cccc2cn(-c3ccc([C@@H]4CCCNC4)cc3)nc12 [niraparib, (3S)-3-[4-{7-(aminocarbonyl)-2H-indazol-2-yl}phenyl]piperidine] | 18 | – | – | < 40 | very sensitive | 99 | very sensitive | –
3 | bevacizumab: recombinant humanized monoclonal antibody that can block angiogenesis and inhibit vascular endothelial growth factor A (VEGF-A) | – | – | 76 | 55 | – | – | – | very sensitive
